# Experimental data: US10131652B2, “Pyrimidinyloxy benzene derivatives as herbicides” (E. I. DU PONT DE NEMOURS AND COMPANY, priority 2014, dated 2018)
# How the values were obtained:
# Test in all cases: Test F pre-/postemergence plant response
# Format in all cases: in vivo
# Conditions in all cases: scale 0 to 100
# [1] = test system: Brazilian crabgrass (Digitaria horizontalis)
# Procedure, shortened: (§1)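 Seeds were sown in silt loam soil and sprayed preemergence; separately, plants at the 1- to 4-leaf stage (2 to 18 cm) received postemergence sprays. Test chemicals were in a non-phytotoxic solvent mixture with surfactant. After 14 to 21 days in a greenhouse, injury was visually rated 0 (no effect) to 100 (complete control) against untreated controls.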
# [2] = test system: Italian ryegrass (Lolium multiflorum)
# Procedure, shortened: as §1
# [3] = test system: arrowleaf sida (Sida rhombifolia)
# Procedure, shortened: as §1
# [4] = test system: corn (Zea mays)
# Procedure, shortened: as §1
# [5] = test system: fall panicum (Panicum dichotomiflorum)
# Procedure, shortened: as §1
# [6] = test system: goosegrass (Eleusine indica)
# Procedure, shortened: as §1
# [7] = test system: green foxtail (Setaria viridis)
# Procedure, shortened: as §1
# [8] = test system: kochia (Kochia scoparia)
# Procedure, shortened: as §1
# [9] = test system: lambsquarters (Chenopodium album)
# Procedure, shortened: as §1
# [10] = test system: large (Lg) crabgrass (Digitaria sanguinalis)
# Procedure, shortened: as §1
# [11] = test system: nightshade (eastern black nightshade, Solanum ptycanthum)
# Procedure, shortened: as §1
# [12] = test system: palmer pigweed (Amaranthus palmeri)
# Procedure, shortened: as §1
# [13] = test system: sandbur (southern sandbur, Cenchrus echinatus)
# Procedure, shortened: as §1
# [14] = test system: soybean (Glycine max)
# Procedure, shortened: as §1
# [15] = test system: surinam grass (Brachiaria decumbens)
# Procedure, shortened: as §1
# [16] = test system: wild poinsettia (Euphorbia heterophylla)
# Procedure, shortened: as §1
structure (smiles),measurement,setting,value
CC(F)(F)c1cc(-c2ccccc2Oc2ncc(Br)cn2)no1 [Compound 149],"Plant response rating, Crabgrass, Brazil",[1]; 16 g ai/ha Postemergence,20
same,"Plant response rating, Crabgrass, Brazil",[1]; 16 g ai/ha Preemergence,0
same,"Plant response rating, Crabgrass, Brazil",[1]; 31 g ai/ha Postemergence,20
same,"Plant response rating, Crabgrass, Brazil",[1]; 31 g ai/ha Preemergence,15
same,"Plant response rating, Crabgrass, Brazil",[1]; 62 g ai/ha Postemergence,20
same,"Plant response rating, Crabgrass, Brazil",[1]; 62 g ai/ha Preemergence,35
same,"Plant response rating, Crabgrass, Brazil",[1]; 125 g ai/ha Postemergence,25
same,"Plant response rating, Crabgrass, Brazil",[1]; 125 g ai/ha Preemergence,85
same,"Plant response rating, Ryegrass, Italian",[2]; 16 g ai/ha Postemergence,0
same,"Plant response rating, Ryegrass, Italian",[2]; 16 g ai/ha Preemergence,0
same,"Plant response rating, Ryegrass, Italian",[2]; 31 g ai/ha Postemergence,10
same,"Plant response rating, Ryegrass, Italian",[2]; 31 g ai/ha Preemergence,0
same,"Plant response rating, Ryegrass, Italian",[2]; 62 g ai/ha Postemergence,10
same,"Plant response rating, Ryegrass, Italian",[2]; 125 g ai/ha Postemergence,5
same,"Plant response rating, Ryegrass, Italian",[2]; 125 g ai/ha Preemergence,40
same,"Plant response rating, Ryegrass, Italian",[2]; Preemergence,20
same,"Plant response rating, Arrowleaf Sida",[3]; 16 g ai/ha Postemergence,75
same,"Plant response rating, Arrowleaf Sida",[3]; 16 g ai/ha Preemergence,0
same,"Plant response rating, Arrowleaf Sida",[3]; 31 g ai/ha Postemergence,85
same,"Plant response rating, Arrowleaf Sida",[3]; 31 g ai/ha Preemergence,35
same,"Plant response rating, Arrowleaf Sida",[3]; 62 g ai/ha Postemergence,95
same,"Plant response rating, Arrowleaf Sida",[3]; 62 g ai/ha Preemergence,65
same,"Plant response rating, Arrowleaf Sida",[3]; 125 g ai/ha Postemergence,98
same,"Plant response rating, Arrowleaf Sida",[3]; 125 g ai/ha Preemergence,100
same,"Plant response rating, Corn",[4]; 16 g ai/ha Postemergence,0
same,"Plant response rating, Corn",[4]; 16 g ai/ha Preemergence,0
same,"Plant response rating, Corn",[4]; 31 g ai/ha Postemergence,10
same,"Plant response rating, Corn",[4]; 31 g ai/ha Preemergence,0
same,"Plant response rating, Corn",[4]; 62 g ai/ha Postemergence,10
same,"Plant response rating, Corn",[4]; 62 g ai/ha Preemergence,0
same,"Plant response rating, Corn",[4]; 125 g ai/ha Postemergence,15
same,"Plant response rating, Corn",[4]; 125 g ai/ha Preemergence,0
same,"Plant response rating, Panicum, Fall",[5]; 16 g ai/ha Postemergence,10
same,"Plant response rating, Panicum, Fall",[5]; 16 g ai/ha Preemergence,0
same,"Plant response rating, Panicum, Fall",[5]; 31 g ai/ha Postemergence,20
same,"Plant response rating, Panicum, Fall",[5]; 31 g ai/ha Preemergence,80
same,"Plant response rating, Panicum, Fall",[5]; 62 g ai/ha Postemergence,20
same,"Plant response rating, Panicum, Fall",[5]; 125 g ai/ha Postemergence,40
same,"Plant response rating, Panicum, Fall",[5]; 125 g ai/ha Preemergence,100
same,"Plant response rating, Panicum, Fall",[5]; Preemergence,98
same,"Plant response rating, Goosegrass",[6]; 16 g ai/ha Preemergence,0
same,"Plant response rating, Goosegrass",[6]; 31 g ai/ha Preemergence,0
same,"Plant response rating, Goosegrass",[6]; 125 g ai/ha Preemergence,60
same,"Plant response rating, Goosegrass",[6]; Preemergence,40
same,"Plant response rating, Foxtail, Green",[7]; 16 g ai/ha Preemergence,0
same,"Plant response rating, Foxtail, Green",[7]; 31 g ai/ha Preemergence,0
same,"Plant response rating, Foxtail, Green",[7]; 125 g ai/ha Preemergence,50
same,"Plant response rating, Foxtail, Green",[7]; Preemergence,50
same,"Plant response rating, Kochia",[8]; 16 g ai/ha Postemergence,60
same,"Plant response rating, Kochia",[8]; 16 g ai/ha Preemergence,0
same,"Plant response rating, Kochia",[8]; 31 g ai/ha Postemergence,80
same,"Plant response rating, Kochia",[8]; 31 g ai/ha Preemergence,0
same,"Plant response rating, Kochia",[8]; 62 g ai/ha Postemergence,90
same,"Plant response rating, Kochia",[8]; 125 g ai/ha Postemergence,95
same,"Plant response rating, Kochia",[8]; 125 g ai/ha Preemergence,90
same,"Plant response rating, Kochia",[8]; Preemergence,75
same,"Plant response rating, Lambsquarters",[9]; 31 g ai/ha Preemergence,0
same,"Plant response rating, Lambsquarters",[9]; 125 g ai/ha Preemergence,100
same,"Plant response rating, Lambsquarters",[9]; Preemergence,100
same,"Plant response rating, Crabgrass, Large",[10]; 16 g ai/ha Preemergence,0
same,"Plant response rating, Crabgrass, Large",[10]; 31 g ai/ha Preemergence,0
same,"Plant response rating, Crabgrass, Large",[10]; 62 g ai/ha Preemergence,70
same,"Plant response rating, Crabgrass, Large",[10]; 125 g ai/ha Preemergence,85
same,"Plant response rating, Nightshade",[11]; 16 g ai/ha Preemergence,0
same,"Plant response rating, Nightshade",[11]; 31 g ai/ha Preemergence,80
same,"Plant response rating, Nightshade",[11]; 125 g ai/ha Preemergence,100
same,"Plant response rating, Nightshade",[11]; Preemergence,98
same,"Plant response rating, Pigweed, Palmer",[12]; 16 g ai/ha Postemergence,65
same,"Plant response rating, Pigweed, Palmer",[12]; 16 g ai/ha Preemergence,25
same,"Plant response rating, Pigweed, Palmer",[12]; 31 g ai/ha Postemergence,95
same,"Plant response rating, Pigweed, Palmer",[12]; 31 g ai/ha Preemergence,90
same,"Plant response rating, Pigweed, Palmer",[12]; 62 g ai/ha Postemergence,98
same,"Plant response rating, Pigweed, Palmer",[12]; 125 g ai/ha Postemergence,100
same,"Plant response rating, Pigweed, Palmer",[12]; 125 g ai/ha Preemergence,100
same,"Plant response rating, Pigweed, Palmer",[12]; Preemergence,100
same,"Plant response rating, Sandbur",[13]; 16 g ai/ha Postemergence,0
same,"Plant response rating, Sandbur",[13]; 16 g ai/ha Preemergence,0
same,"Plant response rating, Sandbur",[13]; 31 g ai/ha Postemergence,5
same,"Plant response rating, Sandbur",[13]; 31 g ai/ha Preemergence,0
same,"Plant response rating, Sandbur",[13]; 62 g ai/ha Postemergence,15
same,"Plant response rating, Sandbur",[13]; 125 g ai/ha Postemergence,10
same,"Plant response rating, Sandbur",[13]; 125 g ai/ha Preemergence,10
same,"Plant response rating, Sandbur",[13]; Preemergence,0
same,"Plant response rating, Soybean",[14]; 16 g ai/ha Postemergence,50
same,"Plant response rating, Soybean",[14]; 16 g ai/ha Preemergence,0
same,"Plant response rating, Soybean",[14]; 31 g ai/ha Postemergence,85
same,"Plant response rating, Soybean",[14]; 31 g ai/ha Preemergence,0
same,"Plant response rating, Soybean",[14]; 62 g ai/ha Postemergence,90
same,"Plant response rating, Soybean",[14]; 125 g ai/ha Postemergence,90
same,"Plant response rating, Soybean",[14]; 125 g ai/ha Preemergence,30
same,"Plant response rating, Soybean",[14]; Preemergence,0
same,"Plant response rating, Surinam Grass",[15]; 16 g ai/ha Preemergence,0
same,"Plant response rating, Surinam Grass",[15]; 31 g ai/ha Preemergence,0
same,"Plant response rating, Surinam Grass",[15]; 125 g ai/ha Preemergence,15
same,"Plant response rating, Surinam Grass",[15]; Preemergence,15
same,"Plant response rating, Poinsettia, Wild",[16]; 16 g ai/ha Postemergence,50
same,"Plant response rating, Poinsettia, Wild",[16]; 16 g ai/ha Preemergence,0
same,"Plant response rating, Poinsettia, Wild",[16]; 31 g ai/ha Postemergence,40
same,"Plant response rating, Poinsettia, Wild",[16]; 31 g ai/ha Preemergence,0
same,"Plant response rating, Poinsettia, Wild",[16]; 62 g ai/ha Postemergence,60
same,"Plant response rating, Poinsettia, Wild",[16]; 125 g ai/ha Postemergence,70
same,"Plant response rating, Poinsettia, Wild",[16]; 125 g ai/ha Preemergence,35
same,"Plant response rating, Poinsettia, Wild",[16]; Preemergence,0
